Results as given in patent US10584115B2, “Substituted pyridine and pyrazine BMI-1 inhibitors” (PTC Therapeutics, Inc., priority 2013, dated 2020).
Where a name gives a salt, the structure may show the parent alone.

System: Bmi-1 protein
Test: Sandwich ELISA Assay (Bmi-1 protein level in HT-1080 cells after compound treatment)
Format: cell-based
Details: Table 1, Bmi-1 sandwich ELISA, read-out: ELISA EC50 value for Bmi-1 protein
Protocol: Cell Seeding and Compound Treatment (Day 1):
HT-1080 cells were seeded at 8000 cells/well (50 μL) in 96-well tissue culture plates. After the cells became adherent (3-4 hours), 2× diluted stocks of test compounds in 50 μL DMEM containing 1% DMSO (final DMSO concentration was 0.5%) were added and the plates were incubated at 37° C. under 5% CO2 for 40-48 hours.
ELISA Plate First Antibody Preparation (Day 2):
The First Antibody (Millipore Mouse, monoclonal to mouse Bmi-1, clone F6, catalog #05-637) diluted to […] in PBS was added (100 μL) to each well of a Nunc MaxiSorp 96-well ELISA plate. The plate was covered with a plate seal and allowed to stand overnight.
Cell Lysate Preparation (Day 3):
Fresh Lysis buffer (1×) was prepared on the day of the assay as follows: 1 mM EDTA, 150 mM NaCl, 0.5% Triton-X 100, 10 mM NaF, 20 mM B-Glycerophosphate, 1 mM DTT (in PBS, pH 7.2-7.4) and HALT protease inhibitor cocktail (lx) (Pierce #78410).
A standard curve was prepared at the following Bmi-1 concentrations: 8000, 4000, 2000, 1000, 500, 250, 125 and 0 pg/mL. The Bmi-1 Recombinant Protein Standard (Novus Biologicals PCGF4 Recombinant Protein (P01), catalog # H00000648-P01) used to prepare the standard curve was stored at −80° C. On first thaw, the Recombinant Protein Standard was diluted to 10 μg/L in Blocking Buffer (1% BSA in PBS; BSA: Fisher Scientific Catalog #1600-100). Aliquots were taken and refrozen at −80° C. The aliquots may be kept at 4° C. and reused after first thaw, but only within 1-2 weeks. The Recombinant Protein Standard contains a GST-fusion tag that appears at approximately 70 Kda on Western Blot.
The prepared ELISA plate was washed 3× with Wash Buffer (0.05% Tween-20 in PBS). The final wash was removed from the plate and the plate was blotted dry. Blocking Buffer (300 μL) (1% BSA in PBS) was added to each well. The plate was covered with a plate seal and incubated at room temperature for 1 hour. The blocked plate was washed 3× with Wash Buffer, then the final wash was removed and the plate was blotted dry. The previously prepared samples and standards were added ([…]) and the plate was covered with a plate seal and incubated at 4° C. overnight.
The prepared ELISA plate was removed from incubation and allowed to stand at room temperature for 30 minutes, then washed and blotted dry. The Second Antibody (Cell Signaling Rabbit anti-Bmi-1, Cat #2830) diluted to 1:600 in Blocking Buffer was added (100 μL) to each well, except as needed for background control wells. The plate was covered with a plate seal and incubated for 1.5 hrs at room temperature.
The ELISA plate was washed and blotted dry as previously described. The Third Antibody (Cell Signaling HRP conjugated anti-rabbit IgG (CellSignaling, Cat #:7074) diluted to 1:300 in Blocking Buffer was added (100 μL) to each well, except as needed for background control wells. The plate was incubated for 1 hr at room temperature.
The plate was washed and blotted dry, then a previously prepared TMB substrate (TMB substrate kit, Pierce catalog #34021) (prepared by mixing kit reagents 1:1) (100 μL) was added per well. The plate was incubated for 20-30 minutes at room temperature in the dark, then Stop Solution (2 M sulfuric acid in water) (50 μL) was added per well. The plates were read at OD450 (experimental) and OD570 (reference).

SMILES | EC50 [nM]
Cc1nc2ccccc2n1-c1cncc(Nc2ccc(CN)cc2)n1 [154a, N-[4-(aminomethyl)phenyl]-6-(2-methyl-1H-benzimidazol-1-yl)pyrazin-2-amine trifluoroacetate] | 10 to 100
Nc1cc(Nc2ccc(C(F)(F)F)cc2)nc(-c2c(CO)nc3ccccn23)c1 [289a, [3-(4-amino-6-{[4-(trifluoromethyl)phenyl]amino}pyridin-2-yl)imidazo[1,2-a]pyridin-2-yl)methanol hydrochloride (1:2)] | 10 to 100
COc1ccc(Nc2cccc(-c3c(C(F)(F)F)nc4ccccn34)n2)cc1Cl [Cpd 3, N-(3-chloro-4-methoxyphenyl)-6-[2-(trifluoromethyl)imidazo[1,2-a]pyridin-3-yl]pyridin-2-amine] | 1 to 10
COc1ccc(Nc2cccc(-c3c(C(F)(F)F)nc4ccccn34)n2)cc1 [Cpd 4, N-(4-methoxyphenyl)-6-[2-(trifluoromethyl)imidazo[1,2-a]pyridin-3-yl]pyridin-2-amine] | 1 to 10
FC(F)(F)c1ccc(Nc2cncc(-c3c(C(F)(F)F)nc4ccccn34)n2)cc1 [Cpd 6, 6-[2-(trifluoromethyl)imidazo[1,2-a]pyridin-3-yl]-N-[4-(trifluoromethyl)phenyl]pyrazin-2-amine] | 1 to 10
COc1ccc(Nc2cncc(-c3c(C(F)(F)F)nc4ccccn34)n2)cc1F [Cpd 7, N-(3-fluoro-4-methoxyphenyl)-6-[2-(trifluoromethyl)imidazo[1,2-a]pyridin-3-yl]pyrazin-2-amine] | < 1
COc1ccc(Nc2cccc(-c3c(C(F)(F)F)nc4ccccn34)n2)cc1F [Cpd 8, N-(3-fluoro-4-methoxyphenyl)-6-[2-(trifluoromethyl)imidazo[1,2-a]pyridin-3-yl]pyridin-2-amine] | 1 to 10
Fc1ccc(Nc2cncc(-c3c(C(F)(F)F)nc4ccccn34)n2)cc1 [Cpd 9, N-(4-fluorophenyl)-6-[2-(trifluoromethyl)imidazo[1,2-a]pyridin-3-yl]pyrazin-2-amine] | 100 to 3000
FC(F)(F)c1nc2ccccn2c1-c1cncc(Nc2ccc(Cl)cc2)n1 [Cpd 10, N-(4-chlorophenyl)-6-[2-(trifluoromethyl)imidazo[1,2-a]pyridin-3-yl]pyrazin-2-amine] | 1 to 10
FC(F)(F)Oc1ccc(Nc2cncc(-c3c(C(F)(F)F)nc4ccccn34)n2)cc1 [Cpd 11, N-[4-(trifluoromethoxy)phenyl]-6-[2-(trifluoromethyl)imidazo[1,2-a]pyridin-3-yl]pyrazin-2-amine] | 10 to 100
FC(F)(F)Oc1ccc(Nc2cccc(-c3c(C(F)(F)F)nc4ccccn34)n2)cc1 [Cpd 16, N-[4-(trifluoromethoxy)phenyl]-6-[2-(trifluoromethyl)imidazo[1,2-a]pyridin-3-yl]pyridin-2-amine] | 10 to 100
FC(F)(F)c1nc2ccccn2c1-c1cccc(Nc2ccc(Cl)cc2)n1 [Cpd 17, N-(4-chlorophenyl)-6-[2-(trifluoromethyl)imidazo[1,2-a]pyridin-3-yl]pyridin-2-amine] | 1 to 10
COc1ccc(Nc2cncc(-c3c(C(F)(F)F)nc4ccccn34)n2)cc1Cl [Cpd 22, N-(3-chloro-4-methoxyphenyl)-6-[2-(trifluoromethyl)imidazo[1,2-a]pyridin-3-yl]pyrazin-2-amine] | 1 to 10
N#Cc1ccc(Nc2cncc(-c3c(C(F)(F)F)nc4ccccn34)n2)cc1 [Cpd 23] | 10 to 100
FC(F)Oc1ccc(Nc2cncc(-c3c(C(F)(F)F)nc4ccccn34)n2)cc1 [Cpd 24, N-[4-(difluoromethoxy)phenyl]-6-[2-(trifluoromethyl)imidazo[1,2-a]pyridin-3-yl]pyrazin-2-amine] | < 1
Fc1cc(Nc2cncc(-c3c(C(F)(F)F)nc4ccccn34)n2)ccc1Cl [Cpd 25, N-(4-chloro-3-fluorophenyl)-6-[2-(trifluoromethyl)imidazo[1,2-a]pyridin-3-yl]pyrazin-2-amine] | 1 to 10
Fc1ccc(Nc2cncc(-c3c(C(F)(F)F)nc4ccccn34)n2)cc1F [Cpd 26, N-(3,4-difluorophenyl)-6-[2-(trifluoromethyl)imidazo[1,2-a]pyridin-3-yl]pyrazin-2-amine] | 100 to 3000
FC(F)Oc1ccc(Nc2cccc(-c3c(C(F)(F)F)nc4ccccn34)n2)cc1 [Cpd 27, N-[4-(difluoromethoxy)phenyl]-6-[2-(trifluoromethyl)imidazo[1,2-a]pyridin-3-yl]pyridin-2-amine] | 1 to 10
FC(F)(F)c1nc2ccccn2c1-c1cncc(Nc2ccc(Cl)c(Cl)c2)n1 [Cpd 29, N-(3,4-dichlorophenyl)-6-[2-(trifluoromethyl)imidazo[1,2-a]pyridin-3-yl]pyrazin-2-amine] | 10 to 100
Fc1cc(Nc2cncc(-c3c(C(F)(F)F)nc4ccccn34)n2)ccc1Br [Cpd 30, N-(4-bromo-3-fluorophenyl)-6-[2-(trifluoromethyl)imidazo[1,2-a]pyridin-3-yl]pyrazin-2-amine] | 1 to 10
FC(F)(F)c1nc2ccccn2c1-c1cncc(Nc2ccc(Br)c(Cl)c2)n1 [Cpd 31, N-(4-bromo-3-chlorophenyl)-6-[2-(trifluoromethyl)imidazo[1,2-a]pyridin-3-yl]pyrazin-2-amine] | 10 to 100
Cc1nc2ccccc2n1-c1cccc(Nc2ccc(OC(F)F)cc2)n1 [Cpd 35, N-[4-(difluoromethoxy)phenyl]-6-(2-methyl-1H-benzimidazol-1-yl)pyridin-2-amine] | 10 to 100
Cc1nc2ccccc2n1-c1cccc(Nc2ccc(OC(F)(F)F)cc2)n1 [Cpd 36, 6-(2-methyl-1H-benzimidazol-1-yl)-N-[4-(trifluoromethoxy)phenyl]pyridin-2-amine] | 100 to 3000
Cc1nc2ccccc2n1-c1cccc(Nc2ccc(C(F)(F)F)cc2)n1 [Cpd 37, 6-(2-methyl-1H-benzimidazol-1-yl)-N-[4-(trifluoromethyl)phenyl]pyridin-2-amine] | 10 to 100
FC(F)Oc1ccc(Nc2cccc(-n3c(C(F)(F)F)nc4ccccc43)n2)cc1 [Cpd 38, N-[4-(difluoromethoxy)phenyl]-6-[2-(trifluoromethyl)-1H-benzimidazol-1-yl]pyridin-2-amine] | 10 to 100
FC(F)(F)Oc1ccc(Nc2cccc(-n3c(C(F)(F)F)nc4ccccc43)n2)cc1 [Cpd 39, N-[4-(trifluoromethoxy)phenyl]-6-[2-(trifluoromethyl)-1H-benzimidazol-1-yl]pyridin-2-amine] | 100 to 3000
FC(F)(F)c1ccc(Nc2cccc(-n3c(C(F)(F)F)nc4ccccc43)n2)cc1 [Cpd 40, 6-[2-(trifluoromethyl)-1H-benzimidazol-1-yl]-N-[4-(trifluoromethyl)phenyl]pyridin-2-amine] | 100 to 3000

Same assay, conditions: read-out: ELISA EC50 value for Bmi-1 protein, Table 1, Bmi-1 sandwich ELISA

SMILES | EC50 [nM]
FC(F)(F)c1ccc(Nc2cccc(-c3c(C(F)(F)F)nc4ccccn34)n2)cc1 [Cpd 18, 6-[2-(trifluoromethyl)imidazo[1,2-a]pyridin-3-yl]-N-[4-(trifluoromethyl)phenyl]pyridin-2-amine] | 1 to 10
COc1ccc(Nc2cccc(-n3c(C)nc4ccccc43)n2)cc1 [Cpd 32, N-(4-methoxyphenyl)-6-(2-methyl-1H-benzimidazol-1-yl)pyridin-2-amine] | 1 to 10
COc1ccc(Nc2cccc(-n3c(C(F)(F)F)nc4ccccc43)n2)cc1 [Cpd 33, N-(4-methoxyphenyl)-6-[2-(trifluoromethyl)-1H-benzimidazol-1-yl]pyridin-2-amine] | 10 to 100
COc1ccc(Nc2ccc(C#N)c(-c3c(C(F)(F)F)nc4ccccn34)n2)cc1 [Cpd 34, 6-[(4-methoxyphenyl)amino]-2-[2-(trifluoromethyl)imidazo[1,2-a]pyridin-3-yl]pyridine-3-carbonitrile] | 100 to 3000
COc1ccc(Nc2cc(C#N)cc(-c3c(C(F)(F)F)nc4ccccn34)n2)cc1 [Cpd 42, 2-[(4-methoxyphenyl)amino]-6-[2-(trifluoromethyl)imidazo[1,2-a]pyridin-3-yl]pyridine-4-carbonitrile] | 1 to 10
